Test systems include CCRF-CEM leukemia; HT29 colon; UO-31 renal; MDA-MB-231 breast; T-47D breast; LOX IMVI melanoma; HCC-2998 colon; NCI-H23 lung; HOP-62 NSCLC; SNB-75 CNS.
Assay in all cases: NCI anticancer screen, dose series, 48 h

Each structure is given as a SMILES string.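 These data come from cells grown in 96-well plates and exposed to compound for 48 hours at five concentrations. Abbreviation: GI50, concentration required for 50% inhibition of growth. TGI denotes the concentration required for complete inhibition of growth.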

For `CC(=O)Nc1c(I)c(NC(C)=O)c(I)c(C(=O)O)c1I`, the GI50 in the test on CCRF-CEM leukemia, in the test on HT29 colon, in the test with UO-31 renal, with MDA-MB-231 breast, in the test on T-47D breast and in the test on LOX IMVI melanoma was greater than 100 µM in each case. Besides, the GI50 in the test on HCC-2998 colon, in the test with NCI-H23 lung and in the test on HOP-62 NSCLC was greater than 100 µM in each case. Besides, the TGI with CCRF-CEM leukemia, in the test on HT29 colon, in the test on UO-31 renal, in the test with MDA-MB-231 breast, with T-47D breast and in the test on LOX IMVI melanoma was greater than 100 µM each time. Also, the TGI in the test on HCC-2998 colon, in the test with NCI-H23 lung and in the test with HOP-62 NSCLC was greater than 100 µM each time.
As for `O=C(OC1CCC2OOC1O2)c1ccc([N+](=O)[O-])cc1` (configuration not stated), the TGI with SNB-75 CNS, in the test on CCRF-CEM leukemia, with HT29 colon, in the test on UO-31 renal, in the test with LOX IMVI melanoma and with HCC-2998 colon was greater than 100 µM each time. In addition, the TGI in the test with NCI-H23 lung and in the test with HOP-62 NSCLC was greater than 100 µM in each case.
As to `N#CCCCCCOCCOCCOCCOCCOCCCCCC#N`, the TGI with SNB-75 CNS, in the test with CCRF-CEM leukemia, in the test on HT29 colon, in the test with UO-31 renal, in the test on LOX IMVI melanoma and in the test on HCC-2998 colon was greater than 100 µM in each case. The TGI in the test with NCI-H23 lung and with HOP-62 NSCLC was greater than 100 µM in each case.
Consider `O=C(NCc1cccnc1)C1COc2cc(-c3cc(=O)c4ccccc4o3)ccc2O1` (configuration not stated), for which the TGI in the test on SNB-75 CNS is 28.8 µM; in the test on CCRF-CEM leukemia, greater than 100 µM; in the test on HT29 colon, greater than 100 µM; in the test with UO-31 renal, greater than 100 µM; with LOX IMVI melanoma it was greater than 63.1 µM; in the test on HCC-2998 colon, greater than 100 µM. For the same compound, the values for the TGI in the test with NCI-H23 lung and in the test on HOP-62 NSCLC were greater than 100 µM and 24.8 µM, respectively.
Turning to `CC1(Br)CC2OC3(Br)C=CC(C)(O)C2(CC1=O)C3(C)C` (configuration not stated), the TGI in the test on SNB-75 CNS was greater than 100 µM; with CCRF-CEM leukemia, greater than 36 µM; in the test on HT29 colon, greater than 100 µM; with UO-31 renal it was greater than 100 µM; in the test on LOX IMVI melanoma, greater than 100 µM; with HCC-2998 colon, greater than 100 µM. Further, the TGI with NCI-H23 lung and with HOP-62 NSCLC was greater than 100 µM throughout.
Consider `CC[C@@]1(O)C(=O)OCc2c1cc1n(c2=O)Cc2cc3cccc([N+](=O)[O-])c3nc2-1`, for which the GI50 with SNB-75 CNS is 0.879 µM; in the test with CCRF-CEM leukemia it was 0.0506 µM; with HT29 colon, 2.18 µM; in the test with UO-31 renal, 1.17 µM; in the test on LOX IMVI melanoma, 0.429 µM; in the test with HCC-2998 colon, 4.92 µM. Moreover, the GI50 is 0.486 µM in the test on NCI-H23 lung and 0.142 µM in the test on HOP-62 NSCLC. The TGI in the test on SNB-75 CNS was 7.85 µM; in the test with CCRF-CEM leukemia, 50.4 µM; with HT29 colon it was greater than 100 µM; with UO-31 renal it was 6.91 µM; in the test with LOX IMVI melanoma, 6.14 µM; with HCC-2998 colon it was 31.8 µM. Moreover, the figures for the TGI with NCI-H23 lung and in the test on HOP-62 NSCLC were 4.19 µM and 0.582 µM, respectively.
Turning to `[Cl][Hg][c]1ccc(Cl)s1`, the GI50 in the test on SNB-75 CNS is 3.57 µM; in the test on CCRF-CEM leukemia it was 0.326 µM; in the test on HT29 colon it was 1.14 µM; in the test on UO-31 renal, 1.78 µM; with T-47D breast, 0.908 µM; in the test with LOX IMVI melanoma, 1.53 µM. Also, the GI50 with HCC-2998 colon was 11.9 µM; in the test on NCI-H23 lung, 2.69 µM; in the test on HOP-62 NSCLC, 4.29 µM. Further, the TGI is 17.3 µM with SNB-75 CNS; 3.99 µM in the test on CCRF-CEM leukemia; 4.66 µM with HT29 colon; 3.26 µM in the test with UO-31 renal; 3.37 µM with T-47D breast; 3.24 µM in the test on LOX IMVI melanoma. Further, the TGI was determined as 26.4 µM in the test on HCC-2998 colon, 8.05 µM with NCI-H23 lung and 21.8 µM in the test with HOP-62 NSCLC.
As to `Cc1ccc(NC(=O)c2cc3ccccc3c(N=Nc3cc(S(=O)(=O)O)ccc3O)c2O)c(C)c1`, the TGI is greater than 100 µM in the test with SNB-75 CNS; 19.6 µM in the test with CCRF-CEM leukemia; 58.3 µM in the test with HT29 colon; 34.1 µM with UO-31 renal; greater than 100 µM with MDA-MB-231 breast; greater than 100 µM in the test with T-47D breast. Also, the TGI in the test on LOX IMVI melanoma is greater than 100 µM; with NCI-H23 lung it was 56.6 µM; with HOP-62 NSCLC, greater than 100 µM.
With `NC1CCCCC1N.O=[Se]([O-])[O-].[Pt+4]` (configuration not stated), the GI50 was 66.3 µM with SNB-75 CNS; 0.203 µM with CCRF-CEM leukemia; 0.169 µM with HT29 colon; 1.05 µM in the test with UO-31 renal; 0.677 µM with LOX IMVI melanoma; 2.98 µM in the test on HCC-2998 colon. For the same compound, the GI50 in the test on NCI-H23 lung is 1.51 µM; with HOP-62 NSCLC, 2.52 µM. The TGI in the test with SNB-75 CNS was greater than 100 µM; with CCRF-CEM leukemia, 97.7 µM; with HT29 colon it was 17.5 µM; with UO-31 renal it was 16.7 µM; in the test with LOX IMVI melanoma, greater than 100 µM; with HCC-2998 colon, 11.1 µM. The figures for the TGI with NCI-H23 lung and in the test on HOP-62 NSCLC were 17.1 µM and greater than 51.4 µM, respectively.
Regarding `COc1ccc(Sc2nc3cc(N)cc(N)c3nc2-c2ccccc2)cc1`, the GI50 in the test with CCRF-CEM leukemia is 2.28 µM; in the test on UO-31 renal it was greater than 100 µM; with MDA-MB-231 breast, greater than 100 µM; in the test with T-47D breast, greater than 100 µM; with LOX IMVI melanoma, 51 µM; with NCI-H23 lung it was greater than 100 µM. In addition, in the test with HOP-62 NSCLC, the GI50 is greater than 100 µM. Besides, the TGI was 8.36 µM with CCRF-CEM leukemia; greater than 100 µM with UO-31 renal; greater than 100 µM in the test with MDA-MB-231 breast; greater than 100 µM in the test with T-47D breast; greater than 100 µM with LOX IMVI melanoma; greater than 100 µM in the test with NCI-H23 lung. In addition, the TGI with HOP-62 NSCLC is greater than 100 µM.
Regarding `COc1cc(-c2oc3c(OC)cc(OC)c(O)c3c(=O)c2OC)cc(OC)c1OC`, the TGI with SNB-75 CNS is 5.06 µM; in the test with HT29 colon, greater than 100 µM; with UO-31 renal it was greater than 100 µM; in the test on MDA-MB-231 breast, greater than 100 µM; in the test on T-47D breast it was greater than 100 µM; with LOX IMVI melanoma it was greater than 100 µM. Also, the TGI in the test on HCC-2998 colon was greater than 100 µM; in the test with NCI-H23 lung it was greater than 100 µM; in the test on HOP-62 NSCLC, 6.62 µM.
Take `COC(=O)c1ccccc1N1C(=O)Cc2ccccc2C1=O`: the TGI was 74 µM in the test on SNB-75 CNS; greater than 100 µM in the test with HT29 colon; greater than 100 µM in the test on UO-31 renal; greater than 100 µM in the test on HCC-2998 colon; greater than 100 µM in the test with NCI-H23 lung.

These data come from PubChem BioAssay (NCI).
